System: anti-chitosan polyclonal antibody (CTSpAb)
Experiment: Competitive ELISA with 3-mer to 6-mer CTS oligosaccharide as competitive substance
Type: binding, fowl
Conditions: CTSpAb diluted 8,000-fold
Experimental: The Molecular Size of CTS which can be assayed by CTSpAb was determined through a competitive ELISA employing a 3-mer to 6-mer CTS oligosaccharide (product of Seikagaku Corporation) as a competitive substance.
To CTS, 1% (v/v) acetic acid was added so as to adjust the concentration to 2 μg/mL. The thus-prepared solution was added to a plate at 50 μL/well, and the plate was allowed to stand overnight at 4° C. The plate was washed twice with 9.57 mM PBS (pH: 7.5) at 300 μL/well, and then 25% BA/9.57 mM PBS (pH: 7.5) was added thereto at 200 μL/well. The plate was allowed to stand for 1 hour, to thereby fabricate CTS-immobilized plate. The plate was washed repeatedly four times with PBS-T at 300 μL/well. To the plate, a solution prepared by adding 10% BA/PBS-T to the CTS oligosaccharide so as to adjust the concentration to 0.00064 to 10 μg/mL, or 10% BA/PBS-T (CTS oligosaccharide-free) was added to the plate at 100 μL/well. Then, CTSpAb diluted 8,000-fold with 10% BA/PBS-T was added to the plate at 100 μL/well, and the plate was allowed to stand for 1 hour. The plate was washed repeatedly four times with PBS-T at 300 μL/well. Subsequently, a product of peroxidase-labeled anti-fowl IgY (IgG) (H+L) antibody 5,000-fold diluted with 10% BA/PBS-T was added to the plate at 100 μL/well, and the plate was allowed to stand for 1 hour. The plate was washed repeatedly four times with PBS-T at 300 μL/well, and then, TMB reagent was added to the plate at 100 μL/well, and the plate was allowed to stand for 30 minutes. Then, 1 N HCl was added to the plate at 100 μL/well. The absorbance of each well of the plate was measured by means of a well reader MP-96 at a measurement wavelength of 450 nm and a reference wavelength of 630 nm.
As is clear from Table 3, binding of CTSpAb to CTS on the plate was inhibited by 3- to 6-mer CTS oligosaccharide.

[1] = CTS oligosaccharide 0.00064 μg/mL
[2] = CTS oligosaccharide 0.0032 μg/mL
[3] = CTS oligosaccharide 0.016 μg/mL

Structure (SMILES)	% Inhibition [1]	% Inhibition [2]	% Inhibition [3]	% Inhibition (CTS oligosaccharide 0.08 μg/mL)	% Inhibition (CTS oligosaccharide 0.4 μg/mL)	% Inhibition (CTS oligosaccharide 2 μg/mL)	% Inhibition (CTS oligosaccharide 10 μg/mL)
N[C@H]1[C@H](O[C@H]2[C@H](O)[C@@H](N)[C@H](O[C@H]3[C@H](O)[C@@H](N)C(O)O[C@@H]3CO)O[C@@H]2CO)O[C@H](CO)[C@@H](O)[C@@H]1O (stereo partly drawn) [3-mer]	6%	9%	11%	16%	24%	32%	44%
N[C@H]1[C@H](O[C@H]2[C@H](O)[C@@H](N)[C@H](O[C@H]3[C@H](O)[C@@H](N)[C@H](O[C@H]4[C@H](O)[C@@H](N)[C@H](O[C@H]5[C@H](O)[C@@H](N)C(O)O[C@@H]5CO)O[C@@H]4CO)O[C@@H]3CO)O[C@@H]2CO)O[C@H](CO)[C@@H](O)[C@@H]1O (stereo partly drawn) [5-mer]	28%	42%	55%	65%	69%	70%	70%
N[C@H]1[C@H](O[C@H]2[C@H](O)[C@@H](N)[C@H](O[C@H]3[C@H](O)[C@@H](N)[C@H](O[C@H]4[C@H](O)[C@@H](N)[C@H](O[C@H]5[C@H](O)[C@@H](N)[C@H](O[C@H]6[C@H](O)[C@@H](N)C(O)O[C@@H]6CO)O[C@@H]5CO)O[C@@H]4CO)O[C@@H]3CO)O[C@@H]2CO)O[C@H](CO)[C@@H](O)[C@@H]1O (stereo partly drawn) [6-mer, chitosan hexamer]	25%	39%	51%	63%	66%	68%	68%
